From patent publication US11851440B2, “Modulators of eukaryotic initiation factor 2B, compositions and methods” (Denali Therapeutics Inc., priority 2017, dated 2023) come the findings set out here.

In general, pIC50 refers to the IC50 on a negative log10 scale, so that one unit is a factor of ten.

The assay relates to ISR pathway (ATF4 translation). The assay can be described thus: ATF4 Nano Luciferase reporter integrated stress response (ISR) assay in H4 ATF4-NLuc cells. The settings on record: compound 30 minutes, then 50 um sodium arsenite for 6 hours, luminescence readout. Background: A reporter such as luciferase makes a cellular process visible.
[1] abbreviates: Homo sapiens, read-out: Activity (IC50), H4 ATF4-NLuc (clone 17) cells.
[2] abbreviates: read-out: Activity (IC50), H4 ATF4-NLuc (clone 17) cells.
Where [3] appears, read: Homo sapiens, H4 ATF4-NLuc (clone 17) cells.

pIC50: −log10 of the molar value. Read-outs that look alike come from different tables or passages of the source.

On to `O=C(COc1ccc(Cl)c(F)c1)NC12CC(c3nnc(C4C[C@H]4COC(F)(F)F)o3)(C1)C2` (mixture of isomers) [Example 80, 2-(4-chloro-3-fluoro-phenoxy)-N-[3-[5-[2-trans-(trifluoromethoxymethyl)cyclopropyl]-1,3,4-oxadiazol-2-yl]-1-bicyclo[1.1.1]pentanyl]acetamide], for which the pIC50 under setting [1] is above 6.00.
For `C[C@H]1C[C@@H]1c1nnc(C23CC(NC(=O)COc4ccc(Cl)c(F)c4)(C2)C3)o1` (relative stereo) [Example 9, 2-(4-chloro-3-fluoro-phenoxy)-N-[1-[5-[(trans)-2-methylcyclopropyl]-1,3,4-oxadiazol-2-yl]-3-bicyclo[1.1.1]pentanyl]acetamide], under setting [1], the pIC50 is above 6.00.
Same read-out and setting: for `N#C[C@H]1C[C@@H](n2cc(C34CC(NC(=O)COc5ccc(Cl)c(F)c5)(C3)C4)nn2)C1` (relative stereo) [Example 35, 2-(4-chloro-3-fluorophenoxy)-N-(3-(1-((cis)-3-cyanocyclobutyl)-1H-1,2,3-triazol-4-yl)bicyclo[1.1.1]pentan-1-yl)acetamide] the value was above 6.00.
The same measure, in the same setting: for `N#C[C@H]1C[C@@H](n2ncc(C34CC(NC(=O)COc5ccc(Cl)c(F)c5)(C3)C4)n2)C1` (relative stereo) [Example 36, 2-(4-chloro-3-fluorophenoxy)-N-(3-(2-((cis)-3-cyanocyclobutyl)-2H-1,2,3-triazol-4-yl)bicyclo[1.1.1]pentan-1-yl)acetamide] the value was above 6.00; for `O=C(COc1ccc(Cl)c(F)c1)NC12CC(c3cnn(C4CCC4)n3)(C1)C2` (single isomer, unassigned) [Example 19, 2-(4-Chloro-3-fluoro-phenoxy)-N-[1-(2-cyclobutyltriazol-4-yl)-3-bicyclo[1.1.1]pentanyl]acetamide], above 6.00.
On the same count and under the same terms, for `O=C(COc1ccc(Cl)c(F)c1)NC12CC(c3cn(C4CCC4)nn3)(C1)C2` (single isomer, unassigned) [Example 20, 2-(4-chloro-3-fluoro-phenoxy)-N-[1-(1-cyclobutyltriazol-4-yl)-3-bicyclo[1.1.1]pentanyl]acetamide] the value was above 6.00; for `O=C(COc1ccc(Cl)c(F)c1)NC12CC(c3nnc(C4C[C@H]4COC(F)(F)F)o3)(C1)C2` (single isomer, unassigned) [Example 82, 2-(4-chloro-3-fluoro-phenoxy)-N-[3-[5-[2-trans-(trifluoromethoxymethyl)cyclopropyl]-1,3,4-oxadiazol-2-yl]-1-bicyclo[1.1.1]pentanyl]acetamide], above 6.00; for `O=C(COc1ccc(Cl)c(F)c1)NC12CC(c3nnc([C@H]4C[C@@H]4C(F)F)o3)(C1)C2` (single isomer, unassigned) [Example 84, 2-(4-chloro-3-fluoro-phenoxy)-N-[3-[5-[2-trans-(difluoromethyl)cyclopropyl]-1,3,4-oxadiazol-2-yl]-1-bicyclo[1.1.1]pentanyl]acetamide], above 6.00.
For the compound `O=C(COc1ccc(Cl)c(F)c1)NC12CC(c3nnc([C@H]4C[C@H]4C(F)F)o3)(C1)C2` (single isomer, unassigned) [Example 85, 2-(4-chloro-3-fluoro-phenoxy)-N-[3-[5-[2-cis-(difluoromethyl)cyclopropyl]-1,3,4-oxadiazol-2-yl]-1-bicyclo[1.1.1]pentanyl]acetamide], the pIC50 under setting [1] was 5.00 to 6.00.
As for `O=C(COC1CC(OC(F)(F)F)C1)NC12CC(c3nnc(C4C[C@H]4COC(F)(F)F)o3)(C1)C2` (single isomer, unassigned) [Example 90, 2-[cis-3-(trifluoromethoxy)cyclobutoxy]-N-[3-[5-[cis-2-(trifluoromethoxymethyl)cyclopropyl]-1,3,4-oxadiazol-2-yl]-1-bicyclo[1.1.1]pentanyl]acetamide], the pIC50 under setting [2] is below 5.00.
Regarding `O=C(COC1CC(OC(F)(F)F)C1)NC12CC(c3nnc(C4C[C@H]4COC(F)(F)F)o3)(C1)C2` (single isomer, unassigned) [Example 91, 2-[3-cis-(trifluoromethoxy)cyclobutoxy]-N-[3-[5-[2-trans-(trifluoromethoxymethyl)cyclopropyl]-1,3,4-oxadiazol-2-yl]-1-bicyclo[1.1.1]pentanyl]acetamide], under setting [2], the pIC50 is above 6.00.
`O=C(NC12CC(c3nnc([C@H]4C[C@@H](OC(F)(F)F)C4)o3)(C1)C2)c1ccn([C@H]2C[C@@H](OC(F)(F)F)C2)n1` (single isomer, unassigned) [Example 108, 1-[cis-3-(trifluoromethoxy)cyclobutyl]-N-[3-[5-[cis-3-(trifluoromethoxy)cyclobutyl]-1,3,4-oxadiazol-2-yl]-1-bicyclo[1.1.1]pentanyl]pyrazole-3-carboxamide]: the pIC50 under setting [1] is above 6.00.
On the same count and under the same terms, for `C[C@H]1C[C@@H]1c1nnc(C23CC(NC(=O)COc4ccc(Cl)c(F)c4)(C2)C3)o1` (single isomer, unassigned) [Example 112, 2-(4-chloro-3-fluoro-phenoxy)-N-[1-[5-[2-methylcyclopropyl]-1,3,4-oxadiazol-2-yl]-3-bicyclo[1.1.1]pentanyl]acetamide] the value was above 6.00.
Regarding `C[C@H]1C[C@@H]1c1nnc(C23CC(NC(=O)COc4ccc(Cl)c(F)c4)(C2)C3)o1` (single isomer, unassigned) [Example 113, 2-(4-chloro-3-fluoro-phenoxy)-N-[1-[5-[2-methylcyclopropyl]-1,3,4-oxadiazol-2-yl]-3-bicyclo[1.1.1]pentanyl]acetamide], under setting [2], the pIC50 was above 6.00.
As to `O=C(NC12CC(c3nnc([C@H]4C[C@@H](OC(F)(F)F)C4)o3)(C1)C2)C1CCc2cc(Cl)ccc2O1` (single isomer, unassigned) [Example 157, 6-chloro-N-(3-(5-(3-cis-(trifluoromethoxy)cyclobutyl)-1,3,4-oxadiazol-2-yl)bicyclo[1.1.1]pentan-1-yl)chroman-2-carboxamide], the pIC50 reads like this: under setting [3], 8.04; under setting [1], above 6.00.
In the case of `O=C(NC12CC(c3nnc([C@H]4C[C@@H](OC(F)(F)F)C4)o3)(C1)C2)C1CCc2cc(Cl)ccc2O1` (single isomer, unassigned) [Example 158, 6-chloro-N-(3-(5-(3-cis-(trifluoromethoxy)cyclobutyl)-1,3,4-oxadiazol-2-yl)bicyclo[1.1.1]pentan-1-yl)chroman-2-carboxamide], under setting [2], the pIC50 was above 6.00.
For `O=C(NC12CC(c3nnc([C@H]4C[C@@H](OC(F)(F)F)C4)o3)(C1)C2)C1CCc2cc(F)ccc2O1` (single isomer, unassigned) [Example 159], under setting [1], the pIC50 was above 6.00.
Consider `O=C(NC12CC(c3nnc([C@H]4C[C@@H](OC(F)(F)F)C4)o3)(C1)C2)C1CCc2cc(F)ccc2O1` (single isomer, unassigned) [Example 160], for which, under setting [2], the pIC50 was above 6.00.
For the compound `O=C(COc1ccc(Cl)c(F)c1)NC12CC(N3C[C@H](C4CC(OC(F)(F)F)C4)OC3=O)(C1)C2` (single isomer, unassigned) [Example 206], the pIC50 under setting [1] is above 6.00.
On the same count and under the same terms, for `O=C(COc1ccc(Cl)c(F)c1)NC12CC(N3C[C@@H](C4CC(OC(F)(F)F)C4)OC3=O)(C1)C2` (single isomer, unassigned) [Example 208] the value was above 6.00.
In the case of `O=C(COc1ccc(Cl)c(F)c1)NC12CC(N3C[C@@H](C4CC(OC(F)(F)F)C4)OC3=O)(C1)C2` (single isomer, unassigned) [Example 209], the pIC50 under setting [2] is above 6.00.
`N#CC1CC([C@H]2CN(C34CC(NC(=O)COc5ccc(Cl)c(F)c5)(C3)C4)C(=O)O2)C1` (single isomer, unassigned) [Example 218]: the pIC50 under setting [1] was above 6.00.
For the compound `O=C(COc1ccc(Cl)cc1)NC12CC(c3nnc(C4CCOC4)o3)(C1)C2` (centres unmarked) [Example 1, 2-(4-Chlorophenoxy)-N-[3-(5-tetrahydrofuran-3-yl-1,3,4-oxadiazol-2-yl)-1-bicyclo[1.1.1]pentanyl]acetamide], the pIC50 under setting [1] is 5.00 to 6.00.
On the same count and under the same terms, the same measure for `O=C(COc1ccc(Cl)cc1)NC12CC(c3nnc(C4CCCO4)o3)(C1)C2` (centres unmarked) [Example 2, 2-(4-Chlorophenoxy)-N-[3-(5-tetrahydrofuran-2-yl-1,3,4-oxadiazol-2-yl)-1-bicyclo[1.1.1]pentanyl]acetamide]: 5.00 to 6.00.
On to `O=C(COc1ccc(Cl)cc1)NC12CC(c3nnc([C@H]4C[C@@H](OC(F)(F)F)C4)o3)(C1)C2` [Example 3, 2-(4-chlorophenoxy)-N-[3-[5-[cis-3-(trifluoromethoxy)cyclobutyl]-1,3,4-oxadiazol-2-yl]-1-bicyclo[1.1.1]pentanyl]acetamide], for which the pIC50 reads like this: under setting [3], 8.04; under setting [1], above 6.00.
Consider `O=C(COc1ccc(Cl)cc1)NC12CC(c3nnc(CC(F)(F)F)o3)(C1)C2` [Example 4, 2-(4-chlorophenoxy)-N-[3-[5-(2,2,2-trifluoroethyl)-1,3,4-oxadiazol-2-yl]-1-bicyclo[1.1.1]pentanyl]acetamide], for which the pIC50 under setting [1] is 5.00 to 6.00.
`O=C(COc1ccc(Cl)cc1)NC12CC(c3nnc(COC4CCC4)o3)(C1)C2` [Example 5, 2-(4-Chlorophenoxy)-N-[1-[5-(cyclobutoxymethyl)-1,3,4-oxadiazol-2-yl]-3-bicyclo[1.1.1]pentanyl]acetamide]: the pIC50 under setting [1] is above 6.00.
Take `O=C(COc1ccc(Cl)c(F)c1)NC12CC(c3nnc([C@H]4C[C@@H](OC(F)(F)F)C4)o3)(C1)C2` [Example 6, 2-(4-chloro-3-fluoro-phenoxy)-N-[1-[5-[cis-3-(trifluoromethoxy)cyclobutyl]-1,3,4-oxadiazol-2-yl]-3-bicyclo[1.1.1]pentanyl]acetamide]: the pIC50 under setting [3] was 8.60 and the pIC50 under setting [1] was above 6.00.
With `CC(CC(F)F)c1nnc(C23CC(NC(=O)COc4ccc(Cl)c(F)c4)(C2)C3)o1` (centres unmarked) [Example 7, 2-(4-chloro-3-fluoro-phenoxy)-N-[1-[5-(3,3-difluoro-1-methyl-propyl)-1,3,4-oxadiazol-2-yl]-3-bicyclo[1.1.1]pentanyl]acetamide], the pIC50 under setting [1] is above 6.00.
